Data as given in patent US20250074911A1, “MACROCYCLIC BTK INHIBITORS” (Crossfire Oncology Holding B.V., priority 2021, published 2025).
“And” between values parts separate entries of the source, which are not always exact repeats. Equal values may be shown once.

How the values were obtained:
[1] = target: full-length wt-BTK enzyme (Homo sapiens (Human), UniProt Q06187); experiment: Biochemical kinase assay wt-BTK (IMAP)
Summary of the method: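 IMAP fluorescence polarization assay: 1.2 nM enzyme pre-incubated 1 h with compound at room temperature, then 50 nM fluorescein-labeled MBP-derived peptide and 4 μM ATP added. Reaction ran 2 h at room temperature in the dark before quenching with IMAP binding solution.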

wt-BTK = wt-BTK (Homo sapiens (Human), UniProt Q06187); experiment: Binding kinetics measurements (Surface Plasmon Resonance) on wt-BTK; details: for Tau (h) wt-BTK (Act): target residence time, SPR; for Kd: binding affinity by Surface Plasmon Resonance (SPR); for target residence time on wild-type-BTK: result in words
Summary of the method: (§1)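 Constants (ka, kd, KD) are geometric means of duplicates from single cycle SPR at 22° C, with compound at 3.16-316 nM in five steps. Residence time for induced-fit binders derived per a two-state model.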

[2] = system: wt-REC-1 mantle cell lymphoma cells; experiment: Cell proliferation assay wt-REC-1 (ATPlite, 72 hours); format: cell-based; details: 72 h; read-out: IC50 wt-REC-1
Summary of the method: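 Luminescent viability read over 72 h, start-of-incubation signal recorded separately to separate growth from cell death. Percentage growth referenced to compound-free 0.3% DMSO wells; IC50 from 4-parameter logistic fit.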

[3] = target: full-length BTK C481S enzyme (Homo sapiens (Human), UniProt Q06187, C481S); experiment: Biochemical kinase assay BTK C481S (IMAP)
Summary of the method: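 Full-length BTK C481S (1.2 nM) was pre-incubated with compound for 1 h at room temperature in the dark, then reacted with fluorescein-labelled MBP-derived peptide (50 nM) and ATP (7 μM) for 2 h. Reactions were quenched with IMAP binding solution, and IC50 values were derived from fluorescence polarization.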

REC-1 T474I cell lines = experiment: Cell proliferation assay REC-1 BTK T474I knock-in cells (ATPlite, 72 hours); format: cell-based; details: Homo sapiens, Rec1; 72 hours; read-out: IC50 REC-1 T474I
Summary of the method: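 REC-1 cells carrying CRISPR knock-in mutant BTK, single-cell cloned and sequence-confirmed, were exposed to compound for 72 h and read by ATPlite luminescence. Percentage growth was calculated against the signal at the start of incubation and against untreated 0.3% DMSO wells as maximum growth.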

BTK T474I = BTK T474I (Homo sapiens (Human), UniProt Q06187, T474I); experiment: Binding kinetics measurements (Surface Plasmon Resonance) on BTK T474I; details: for Tau (h) BTK T474I (Act): target residence time, SPR; for Kd: binding affinity by Surface Plasmon Resonance (SPR); for target residence time on BTK T474 mutants (T474I): result in words
Summary of the method: as §1

BTK T474S = BTK T474S (Homo sapiens (Human), UniProt Q06187, T474S); experiment: Binding kinetics measurements (Surface Plasmon Resonance) on BTK T474S; details: for residence time: SPR binding kinetics, BTK T474S, read-out: Tau (h) BTK T474S (Act), target residence time (converted); for Kd: binding affinity by Surface Plasmon Resonance (SPR); for target residence time on BTK T474 mutants (T474S): result in words
Description: (§2) Binding kinetics measurements on wt-BTK, BTK […], BTK […], BTK […] and BTK […] (Surface Plasmon Resonance) Streptavidin-coated chips (Cat. No. BR100531), disposables and maintenance kits for Biacore were purchased from Cytiva (Eindhoven, The Netherlands). […] Remaining streptavidin was blocked with biocytin. Immobilization was performed at 4° C. Subsequent assay steps were conducted at 22° C. After changing buffer to Biacore buffer with 1% (v/v) dimethylsulfoxide (DMSO), a pre-run was performed for a period of at least 30 min at a flow rate of 30 μl/min to obtain a stable surface. The kinetic constants of the compounds were determined with single cycle kinetics with five consecutive injections with an increasing compound concentration with ranges of 3.16-316 nM. […] To circumvent problems of mass transport limitation, a flow rate of 30 μl/min was used. A blank run with the same conditions was performed before the compound was injected. The SPR sensorgrams were analyzed with Biacore Evaluation Software by using a method of double referencing. First the reference channel was subtracted from the channel containing immobilized protein. Subsequently, the reference curve obtained with buffer injections was subtracted. […] Compounds that bound according to an induced fit model were fitted with a two-state reaction model. The kinetic constants (ka, […], KD) of duplicates were geometrically averaged. […] Target residence for an induced fit model was calculated as described (Tummino and Copeland, 2008).

BTK T316A = BTK T316A (Homo sapiens (Human), UniProt Q06187, T316A); experiment: Binding kinetics measurements (Surface Plasmon Resonance) on BTK T316A; details: for Tau (h) BTK T316A (Act): target residence time, SPR; for Kd: binding affinity by Surface Plasmon Resonance (SPR); for target residence time on BTK T316 mutants: result in words
Description: as §2

[4] = system: wt-TMD8 diffuse large B-cell lymphoma cells; experiment: Cell proliferation assay wt-TMD8 (ATPlite, 120 hours); format: cell-based; details: B-cell; wt-TMD8 cells, 120 hours, ATPlite; read-out: IC50 wt-TMD8
Summary of the method: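 wt-TMD8 DLBCL cells, 1600 per well in RPMI-1640 with 10% FBS, rested ≥5 h then exposed to compound for 120 h at 37° C, 5% CO2. Viability read by ATPlite luminescence; percentage growth calculated relative to start-of-incubation signal and untreated 0.3% DMSO maximum growth.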

BTK C481S = BTK C481S (Homo sapiens (Human), UniProt Q06187, C481S); experiment: Binding kinetics measurements (Surface Plasmon Resonance) on BTK C481S; details: for Kd: binding affinity by Surface Plasmon Resonance (SPR); for Tau (h) BTK C418S (Act): target residence time for BTK C481S, SPR; for target residence time on BTK C481 mutants: result in words
Description: as §2

BTK T474I, sequence (Q06187 whole entry T474I): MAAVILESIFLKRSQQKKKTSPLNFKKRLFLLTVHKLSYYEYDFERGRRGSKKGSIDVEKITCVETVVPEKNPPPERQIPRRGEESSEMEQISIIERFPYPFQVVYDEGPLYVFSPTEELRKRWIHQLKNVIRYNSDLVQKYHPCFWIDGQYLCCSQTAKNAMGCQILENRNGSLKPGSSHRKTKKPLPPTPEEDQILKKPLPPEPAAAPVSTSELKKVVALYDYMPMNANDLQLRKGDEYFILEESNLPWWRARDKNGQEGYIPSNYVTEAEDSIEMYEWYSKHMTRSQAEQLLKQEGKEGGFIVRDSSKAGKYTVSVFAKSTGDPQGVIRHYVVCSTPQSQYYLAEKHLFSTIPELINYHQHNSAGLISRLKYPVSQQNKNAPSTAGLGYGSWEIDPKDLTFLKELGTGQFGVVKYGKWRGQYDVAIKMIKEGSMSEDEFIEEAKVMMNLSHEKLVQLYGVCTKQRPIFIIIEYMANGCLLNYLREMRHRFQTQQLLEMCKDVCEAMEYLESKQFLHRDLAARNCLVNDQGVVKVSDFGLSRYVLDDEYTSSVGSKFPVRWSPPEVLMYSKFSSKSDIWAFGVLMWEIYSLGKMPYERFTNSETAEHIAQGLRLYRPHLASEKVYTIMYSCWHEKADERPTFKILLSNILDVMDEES
wt-BTK, sequence (Q06187 whole entry): as the sequence (Q06187 whole entry T474I) above, with I474T counted along it
full-length wt-BTK enzyme, sequence (Q06187 whole entry): as the sequence (Q06187 whole entry T474I) above, with I474T counted along it
BTK T474S, sequence (Q06187 whole entry T474S): as the sequence (Q06187 whole entry T474I) above, with I474S counted along it
BTK T316A, sequence (Q06187 whole entry T316A): as the sequence (Q06187 whole entry T474I) above, with T316A, I474T counted along it
BTK C481S, sequence (Q06187 whole entry C481S): as the sequence (Q06187 whole entry T474I) above, with I474T, C481S counted along it
full-length BTK C481S enzyme, sequence (Q06187 whole entry C481S): as the sequence (Q06187 whole entry T474I) above, with I474T, C481S counted along it

Structure (SMILES)	IC50 [1]	Tau (h) wt-BTK (Act) (wt-BTK)	IC50 [2]	IC50 [3]	IC50 (REC-1 T474I cell lines)	Tau (h) BTK T474I (Act) (BTK T474I)	residence time (BTK T474S)	Tau (h) BTK T316A (Act) (BTK T316A)	IC50 [4]	Kd (wt-BTK)	Kd (BTK C481S)	Tau (h) BTK C418S (Act) (BTK C481S)	Kd (BTK T474I)	Kd (BTK T474S)	Kd (BTK T316A)	target residence time on wild-type-BTK (wt-BTK)	target residence time on BTK C481 mutants (BTK C481S)	target residence time on BTK T474 mutants (T474I) (BTK T474I)	target residence time on BTK T474 mutants (T474S) (BTK T474S)	target residence time on BTK T316 mutants (BTK T316A)
C[C@@H]1C[C@@H](C)n2nc(-c3ccc(C(=O)Nc4cc(C(F)(F)F)ccn4)cc3)c3c(N)ncc(c32)/C=C/COCCC(=O)N1 [Example 176]	< 5 nM	3.13 h	< 100 nM	< 5 nM	< 100 nM	1.94 h	1.95 h	5.38 h	< 100 nM	–	–	–	–	–	–	–	–	–	–	–
Nc1ncc2c3c1c(-c1ccc(C(=O)Nc4cc(C(F)(F)F)ccn4)cc1)nn3[C@@H]1CCC[C@H](C1)NC(=O)CCCC/C=C\C2 [Example 98b]	< 5 nM	4.35 h	100 to 1000 nM	< 5 nM	–	1.14 h	4.46 h	3.58 h	–	< 5 nM	< 5 nM	5.98 h	10 to 50 nM and < 5 nM	< 3 nM	< 5 nM	–	–	–	–	–
Nc1ncc2n3c(nc(-c4ccc(C(=O)Nc5cc(C(F)(F)F)ccn5)cc4)c13)C1CCC[C@H](C1)NC(=O)CCC/C=C\C2 [Example 133b]	–	4.39 h	< 100 nM	–	–	–	3.12 h	1.96 h	< 100 nM	–	–	7.08 h	–	–	–	–	–	–	–	–
Nc1ncc2c3c1c(-c1ccc(C(=O)Nc4cc(C(F)(F)F)ccn4)cc1)nn3[C@@H]1CCC[C@H](C1)NC(=O)CCCC[C@H](O)/C=C/2 [Example 11]	< 5 nM	5.48 h	< 100 nM	< 5 nM	100 to 500 nM	1.93 h	4.3 h	6.42 h	< 100 nM	< 5 nM	–	–	< 2 nM	< 3 nM	< 5 nM	–	–	–	–	–
Nc1ncc2c3c1c(-c1ccc(C(=O)Nc4ccccn4)cc1)nn3[C@@H]1CCC[C@H](C1)NC(=O)CCCCC/C=C/2 [Example 24]	–	–	–	–	–	–	–	–	–	< 5 nM	< 5 nM	–	< 2 nM	< 3 nM	< 5 nM	–	–	–	–	–
NC(=O)[C@H]1CCN(c2ncnc(N)c2F)C[C@@H]1N1CCC[C@@H](Nc2cc(Cl)cc(C(F)(F)F)c2)C1=O [vecabrutinib, reference compound]	–	0.18 h	–	–	–	0.01 h	0.07 h	0.05 h	–	–	–	0.12 h	–	–	–	short target residence times	short target residence times	short target residence times	short target residence times	short target residence times
Nc1ncc2n3c(nc(-c4ccc(C(=O)Nc5cc(C(F)(F)F)ccn5)cc4)c13)[C@@H]1CCC[C@H](C1)NC(=O)CCC/C=C\C2 [Example 133b]	< 5 nM	–	–	< 5 nM	–	–	–	–	–	< 5 nM	< 5 nM	–	< 2 nM	< 3 nM	< 5 nM	–	–	–	–	–
C[C@@H]1CC(=O)N[C@@H]2CCC[C@H](C2)n2nc(-c3ccc(C(=O)Nc4cc(C(F)(F)F)ccn4)cc3)c3c(N)ncc(c32)/C=C/CCN1C [Example 40]	< 5 nM	6.49 h	< 100 nM	< 5 nM	< 100 nM	0.85 h	8.38 h	2.16 h	< 100 nM	< 5 nM	–	–	< 2 nM	< 3 nM	< 5 nM	–	–	–	–	–
Nc1ncc2c3c1c(-c1ccc(C(=O)Nc4cc(C(F)(F)F)ccn4)cc1)nn3[C@@H]1CCC[C@H](C1)NC(=O)COCCC/C=C/2 [Example 18]	< 5 nM	4.53 h	< 100 nM	< 5 nM	< 100 nM	0.63 h	5.15 h	4.74 h	< 100 nM	< 5 nM	–	–	< 2 nM	< 3 nM	< 5 nM	–	–	–	–	–
C[C@H]1CN(C2COC2)CCN1c1ccc(Nc2cc(-c3ccnc(N4CCn5c(cc6c5CC(C)(C)C6)C4=O)c3CO)cn(C)c2=O)nc1 [fenebrutinib, reference compound]	–	0.29 h	–	–	–	0.19 h	0.93 h	0.03 h	–	–	–	0.08 h	–	–	–	short target residence times	short target residence times	short target residence times	short target residence times	short target residence times
C[C@@H]1CC(=O)N[C@@H]2CC[C@H](C2)n2nc(-c3ccc(C(=O)Nc4cc(C(F)(F)F)ccn4)cc3)c3c(N)ncc(c32)/C=C/CCN1 [Example 175]	< 5 nM	–	< 100 nM	< 5 nM	100 to 500 nM	1.31 h	1.14 h	3.51 h	< 100 nM	–	< 5 nM	4.68 h	–	–	–	–	–	–	–	–
